Measurements as given in patent US8513232B2, “Substituted spirocyclic piperidine derivatives as histamine-3 (H3) receptor ligands” (Cephalon, Inc., priority 2008, dated 2013).
Like-named read-outs stand apart in the source and are kept apart here.

Experiments:
[1] = molecular target: T1, rat histamine H3 receptor (Rattus norvegicus, UniProt Q9QYN8); assay: Rat H3 radioligand binding ([3H]-N-alpha-methylhistamine, SPA)
T1 construct: encoding the entire 445-amino-acid rat histamine H3 receptor; expressed in transfected cells; membrane preparation
T1 sequence (Q9QYN8 whole entry): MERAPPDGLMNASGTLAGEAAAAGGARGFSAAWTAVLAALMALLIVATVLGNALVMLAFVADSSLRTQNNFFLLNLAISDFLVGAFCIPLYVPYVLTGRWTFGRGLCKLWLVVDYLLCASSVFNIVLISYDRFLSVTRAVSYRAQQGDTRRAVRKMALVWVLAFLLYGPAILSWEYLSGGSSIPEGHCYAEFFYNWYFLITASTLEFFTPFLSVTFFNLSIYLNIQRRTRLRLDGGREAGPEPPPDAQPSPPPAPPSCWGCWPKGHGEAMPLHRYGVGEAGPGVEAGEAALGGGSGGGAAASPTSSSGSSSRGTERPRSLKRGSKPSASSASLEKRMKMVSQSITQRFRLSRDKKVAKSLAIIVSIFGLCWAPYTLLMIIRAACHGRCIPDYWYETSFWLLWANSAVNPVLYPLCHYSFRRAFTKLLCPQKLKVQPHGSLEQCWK
Outline: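 SPA-bead binding assay using [3H]-N-alpha-methylhistamine (approximately 1 nM final) with test compounds from 0.01 nM to 30 μM. Rat H3 receptor membranes came from stably transfected CHO-A3 cells; incubation ran 4 h at room temperature, in the dark, in Tris pH 7.4 buffer with MgCl2 and BSA. Clobenpropit (10 μM) gave non-specific binding.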

human H3 receptor = molecular target: T2, human H3 receptor (Homo sapiens, UniProt Q9Y5N1); assay: Human H3 radioligand binding ([3H]-N-alpha-methylhistamine, SPA)
T2 construct: expressed in transfected cells
T2 sequence (Q9Y5N1 whole entry): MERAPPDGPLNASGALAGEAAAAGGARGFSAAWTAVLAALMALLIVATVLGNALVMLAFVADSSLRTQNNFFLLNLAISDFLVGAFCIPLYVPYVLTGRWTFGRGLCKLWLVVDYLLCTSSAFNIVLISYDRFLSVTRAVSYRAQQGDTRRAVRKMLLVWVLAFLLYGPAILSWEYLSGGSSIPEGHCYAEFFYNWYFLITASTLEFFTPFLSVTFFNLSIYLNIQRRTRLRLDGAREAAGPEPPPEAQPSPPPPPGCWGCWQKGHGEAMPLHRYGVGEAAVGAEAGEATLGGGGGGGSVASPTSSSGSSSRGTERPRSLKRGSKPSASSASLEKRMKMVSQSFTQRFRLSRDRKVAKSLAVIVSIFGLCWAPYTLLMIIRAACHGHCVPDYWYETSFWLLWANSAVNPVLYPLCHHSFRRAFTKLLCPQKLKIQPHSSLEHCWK
Outline: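 Compounds (0.01 nM-30 μM) competed with approximately 1 nM [3H]-N-alpha-methylhistamine for human H3 receptor in membranes of stably transfected CHO cells, 10 μg protein per well, in Tris-HCl pH 7.4/MgCl2/BSA buffer for 4 h at room temperature. Bound radioligand measured by scintillation proximity; 10 μM clobenpropit gave non-specific binding.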

[2] = Table A, rat H3 binding, read-out: Rat Ki
[3] = Table A, human H3 binding, read-out: Human Ki
[4] = Rat H3 binding, Table B, Examples 136-362, read-out: rat H3 binding Ki
[5] = Human H3 binding, Table B, Examples 136-362, read-out: hum H3 binding Ki

Row | Ki [1, 2] | Ki (human H3 receptor; [3]) | melting point | Ki [1, 4] | Ki (human H3 receptor; [5]) | Ki ([1]; Rat H3 binding, Table B, given as numeric bound instead of class symbol, read-out: rat H3 binding Ki) | Structure (SMILES)
1 | – | – | 215 to 217 °C | < 200 nM | < 200 nM | – | O=C(NCCO)c1ccc(-c2ccc3c(c2)CCC2(CCN(C4CCC4)CC2)O3)cc1F [Example 147]
2 | – | – | 178 to 181 °C | < 200 nM | < 200 nM | – | O=C(c1ccc(-c2ccc3c(c2)COC2(CCN(C4CCC4)CC2)O3)cc1)N1CC[C@H](O)C1 [Example 148]
3 | – | – | 215 to 217 °C | < 200 nM | < 200 nM | – | O=C(Nc1ccc2c(c1)COC1(CCN(C3CCC3)CC1)O2)c1cccnc1 [Example 149]
4 | – | – | 180 to 182 °C | < 200 nM | < 200 nM | – | O=C(Nc1ccc2c(c1)COC1(CCN(C3CCC3)CC1)O2)c1ccncc1 [Example 150]
5 | – | – | 186 to 187 °C | – | < 200 nM | > 300 nM | CN1CCN(c2ccc3c(c2)OC2(CCN(C4CCC4)CC2)O3)C1=O [Example 151]
6 | – | – | 172 to 174 °C | < 200 nM | < 200 nM | – | O=C(Nc1ccc2c(c1)COC1(CCN(C3CCC3)CC1)O2)c1ccccn1 [Example 152]
7 | – | – | 212 to 215 °C | < 200 nM | < 200 nM | – | N#Cc1cccc(C(=O)Nc2ccc3c(c2)COC2(CCN(C4CCC4)CC2)O3)c1 [Example 153]
8 | – | – | 206 to 208 °C | < 200 nM | < 200 nM | – | N#Cc1ccc(C(=O)Nc2ccc3c(c2)COC2(CCN(C4CCC4)CC2)O3)cc1 [Example 154]
9 | – | – | 156 to 158 °C | < 200 nM | < 200 nM | – | CC(C)(O)CNC(=O)c1ccc(-c2ccc3c(c2)COC2(CCN(C4CCC4)CC2)O3)cc1 [Example 155]
10 | – | – | 67 to 69 °C | < 200 nM | < 200 nM | – | CNC(=O)c1ccc(-c2ccc3c(c2)CCC2(CCN(C4CCC4)CC2)O3)cn1 [Example 156]
11 | – | – | 170 to 172 °C | < 200 nM | < 200 nM | – | N#Cc1ccc(NC(=O)Nc2ccc3c(c2)COC2(CCN(C4CCC4)CC2)O3)cc1 [Example 157]
12 | – | – | 213 to 215 °C | < 200 nM | < 200 nM | – | c1cc(-c2ccc3c(c2)CCC2(CCN(C4CCC4)CC2)O3)ccc1C1=NCCO1 [Example 158]
13 | – | – | 60 to 63 °C | 200 to 1000 nM | < 200 nM | – | O=C(c1ccccc1Nc1ccc2c(c1)COC1(CCN(C3CCC3)CC1)O2)N1CCOCC1 [Example 159]
14 | – | – | 208 to 210 °C | < 200 nM | < 200 nM | – | CNC(=O)c1ccc(-c2ccc3c(c2)COC2(CCN(C4CCC4)CC2)O3)cn1 [Example 160]
15 | – | – | 67 to 70 °C | 200 to 1000 nM | < 200 nM | – | O=c1oc2ccccc2n1-c1ccc2c(n1)COC1(CCN(C3CCC3)CC1)O2 [Example 161]
16 | – | – | 229 to 231 °C | < 200 nM | < 200 nM | – | O=C(Nc1ccccc1)Nc1ccc2c(c1)COC1(CCN(C3CCC3)CC1)O2 [Example 162]

Continued, compound first:

Row | Structure (SMILES) | Ki [1, 2] | Ki (human H3 receptor; [3]) | melting point | Ki [1, 4] | Ki (human H3 receptor; [5]) | Ki ([1]; Rat H3 binding, Table B, given as numeric bound instead of class symbol, read-out: rat H3 binding Ki)
17 | O=C1OCCN1c1ccc2c(c1)CCC1(CCN(C3CCC3)CC1)O2 [Example 119] | < 200 nM | < 200 nM | 186 to 188 °C | – | – | –
18 | O=C1CCN1c1ccc2c(c1)CCC1(CCN(C3CCC3)CC1)O2 [Example 120] | < 200 nM | < 200 nM | 195 to 197 °C | – | – | –
19 | CN1CCN(c2ccc3c(c2)CCC2(CCN(C4CCC4)CC2)O3)C1=O [Example 121] | < 200 nM | < 200 nM | 228 to 230 °C | – | – | –
20 | N#Cc1ccc(Nc2ccc3c(c2)COC2(CCN(C4CCC4)CC2)O3)cc1 [Example 122] | < 200 nM | < 200 nM | 55 to 60 °C | – | – | –
21 | N#Cc1cccc(Nc2ccc3c(c2)COC2(CCN(C4CCC4)CC2)O3)c1 [Example 123] | < 200 nM | < 200 nM | 55 to 60 °C | – | – | –
22 | c1ccc(Nc2ccc3c(c2)COC2(CCN(C4CCC4)CC2)O3)cc1 [Example 124] | < 200 nM | < 200 nM | 52 to 57 °C | – | – | –
23 | N#Cc1ccccc1Nc1ccc2c(c1)COC1(CCN(C3CCC3)CC1)O2 [Example 125] | < 200 nM | < 200 nM | 54 to 58 °C | – | – | –
24 | c1ccc(Nc2ccc3c(c2)COC2(CCN(C4CCC4)CC2)O3)nc1 [Example 126] | < 200 nM | < 200 nM | 159 to 161 °C | – | – | –
25 | c1cnc(Nc2ccc3c(c2)COC2(CCN(C4CCC4)CC2)O3)nc1 [Example 127] | < 200 nM | < 200 nM | 55 to 58 °C | – | – | –
26 | N#Cc1cnc(Nc2ccc3c(c2)COC2(CCN(C4CCC4)CC2)O3)s1 [Example 128] | < 200 nM | < 200 nM | 217 to 218 °C | – | – | –
27 | c1cc(Nc2ccc3c(c2)COC2(CCN(C4CCC4)CC2)O3)ncn1 [Example 129] | < 200 nM | < 200 nM | 170 to 171 °C | – | – | –
28 | CNC(=O)c1ccc(Nc2ccc3c(c2)COC2(CCN(C4CCC4)CC2)O3)nc1 [Example 130] | < 200 nM | < 200 nM | 211 to 213 °C | – | – | –
29 | CNC(=O)c1ccc(-c2ccc3c(n2)COC2(CCN(C4CCC4)CC2)O3)cc1F [Example 133] | < 200 nM | < 200 nM | 172 to 173 °C | – | – | –
30 | CNC(=O)c1ccc(-c2ccc3c(c2)CC2(CCN(C4CCC4)CC2)O3)cc1 [Example 134, 1′-Cyclobutyl-spirobenzofuran-2(3H)-4′-piperidine-(5-(4-methylaminocarbamoylphenyl))] | < 200 nM | < 200 nM | 197 to 198 °C | – | – | –
31 | CS(=O)(=O)c1ccc(-c2ccc3c(c2)CC2(CCN(C4CCC4)CC2)O3)cc1 [Example 135, 1′-Cyclobutyl-spirobenzofuran-2(3H)-4′-piperidine-(5-(4-methylsulfonylphenyl))] | < 200 nM | < 200 nM | > 25 °C | – | – | –
32 | c1cnc(Nc2ccc3c(c2)COC2(CCN(C4CCC4)CC2)O3)cn1 [Example 136] | – | – | 57 to 61 °C | < 200 nM | < 200 nM | –
33 | CNC(=O)N1CCN(c2ccc3c(c2)COC2(CCN(C4CCC4)CC2)O3)C(=O)C1 [Example 137] | – | – | 145 to 149 °C | 200 to 1000 nM | < 200 nM | –
34 | Cc1ccccc1-c1ccc2c(c1)COC1(CCN(C3CCC3)CC1)O2 [Example 138] | – | – | 241 to 243 °C | < 200 nM | < 200 nM | –
35 | O=C1C[C@@H](O)CN1c1ccc2c(c1)COC1(CCN(C3CCC3)CC1)O2 [Example 139] | – | – | 120 to 122 °C | < 200 nM | < 200 nM | –
36 | O=C(NCCO)c1ccc(-c2ccc3c(c2)CCC2(CCN(C4CCC4)CC2)O3)cc1 [Example 140] | – | – | 145 to 147 °C | < 200 nM | < 200 nM | –
37 | O=C(NCCO)c1ccc(-c2cc(F)c3c(c2)COC2(CCN(C4CCC4)CC2)O3)cc1 [Example 141] | – | – | 145 to 147 °C | < 200 nM | < 200 nM | –
38 | CNC(=O)c1ccc(-c2cc(F)c3c(c2)COC2(CCN(C4CCC4)CC2)O3)cc1F [Example 142] | – | – | 156 to 158 °C | < 200 nM | < 200 nM | –
39 | c1csc(-c2ccc3c(c2)COC2(CCN(C4CCC4)CC2)O3)n1 [Example 143] | – | – | 181 to 183 °C | < 200 nM | < 200 nM | –
40 | CN(c1ccc2c(c1)COC1(CCN(C3CCC3)CC1)O2)c1ccccn1 [Example 144] | – | – | 216 to 220 °C | < 200 nM | < 200 nM | –
41 | O=C1N(CCO)CCN1c1ccc2c(c1)COC1(CCN(C3CCC3)CC1)O2 [Example 146] | – | – | 152 to 155 °C | < 200 nM | < 200 nM | –
